Where “and” joins values, the source holds several entries; their conditions need not be identical. Equal values may be shown once. Inconclusive results and toxic doses are left out. How the source made its calls: active means survival T/C of 150% or more; inactive means T/C below 125% in these data.
System: CD2F1 mice, L1210 leukemia ip, survival T/C
Assay: NCI In Vivo Anticancer Drug Screen. Data for tumor model L1210 Leukemia (intraperitoneal) in CD2F1 (CDF1) mice
Conditions: higher = longer survival
Method in brief: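 Read-out first: treated-group measurement over vehicle-control measurement, expressed as a ratio. Animals bore a transplanted tumor line and were dosed with compound or vehicle.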

[1] = endpoint: mean survival time, dose: 50.0 mg/kg/injection, schedule: Q04DX003 (ip), vehicle: saline
[2] = endpoint: mean survival time, dose: 200.0 mg/kg/injection, schedule: Q01DX009 (ip), vehicle: saline with Tween-80
[3] = endpoint: mean survival time, dose: 50.0 mg/kg/injection, schedule: Q01DX009 (ip), vehicle: saline with Tween-80
[4] = endpoint: mean survival time, dose: 100.0 mg/kg/injection, schedule: Q01DX009 (ip), vehicle: saline with Tween-80

Measured: T/C

Nc1ncnc2c1ncn2C1OC(CO)C(O)C1O (stereo unspecified)
inactive: endpoint: mean survival time, dose: 3.12 mg/kg/injection, schedule: Q01DX009 (ip), vehicle: Klucel (hydroxypropylcellulose) (HPC) 100 % of control | endpoint: mean survival time, dose: 6.25 mg/kg/injection, schedule: Q01DX009 (ip), vehicle: Klucel (hydroxypropylcellulose) (HPC) 100 % of control | endpoint: mean survival time, dose: 12.5 mg/kg/injection, schedule: Q01DX009 (ip), vehicle: Klucel (hydroxypropylcellulose) (HPC) 95 % of control | endpoint: mean survival time, dose: 18.7 mg/kg/injection, schedule: Q01DX009 (ip), vehicle: saline 87 % of control | endpoint: mean survival time, dose: 18.75 mg/kg/injection, schedule: Q01DX009 (ip), vehicle: saline 92 % of control | endpoint: mean survival time, dose: 18.75 mg/kg/injection, schedule: Q04DX003 (ip), vehicle: saline 97 % of control | endpoint: mean survival time, dose: 25.0 mg/kg/injection, schedule: Q01DX009 (ip), vehicle: Klucel (hydroxypropylcellulose) (HPC) 95 % of control | endpoint: mean survival time, dose: 25.0 mg/kg/injection, schedule: Q04DX003 (ip), vehicle: saline 100 % of control | endpoint: mean survival time, dose: 37.5 mg/kg/injection, schedule: Q01DX009 (ip), vehicle: saline 86 % of control and 96 % of control | endpoint: mean survival time, dose: 37.5 mg/kg/injection, schedule: Q04DX003 (ip), vehicle: saline 98 % of control | [1] 100 % of control | endpoint: mean survival time, dose: 75.0 mg/kg/injection, schedule: Q01DX009 (ip), vehicle: saline 96 % of control | endpoint: mean survival time, dose: 110.0 mg/kg/injection, schedule: Q03HX024 (ip), vehicle: saline with Tween-80 120 % of control | endpoint: mean survival time, dose: 118.0 mg/kg/injection, schedule: Q01DX005 (ip), vehicle: water 102 % of control | endpoint: mean survival time, dose: 118.0 mg/kg/injection, schedule: Q01DX009 (ip), vehicle: water 104 % of control | endpoint: mean survival time, dose: 150.0 mg/kg/injection, schedule: Q01DX009 (ip), vehicle: saline 96 % of control and 100 % of control | endpoint: mean survival time, dose: 177.0 mg/kg/injection, schedule: Q01DX005 (ip), vehicle: water 99 % of control | endpoint: mean survival time, dose: 177.0 mg/kg/injection, schedule: Q01DX009 (ip), vehicle: water 117 % of control | [2] 117 % of control | endpoint: mean survival time, dose: 200.0 mg/kg/injection, schedule: Q03HX024 (ip), vehicle: saline with Tween-80 124 % of control | endpoint: mean survival time, dose: 266.0 mg/kg/injection, schedule: Q01DX005 (ip), vehicle: water 106 % of control | endpoint: mean survival time, dose: 266.0 mg/kg/injection, schedule: Q01DX009 (ip), vehicle: water 112 % of control | endpoint: mean survival time, dose: 300.0 mg/kg/injection, schedule: Q01DX009 (ip), vehicle: saline with Tween-80 114 % of control | endpoint: mean survival time, dose: 300.0 mg/kg/injection, schedule: Q01DX009 (ip), vehicle: saline 119 % of control and 97 % of control | endpoint: mean survival time, dose: 400.0 mg/kg/injection, schedule: Q01DX005 (ip), vehicle: water 108 % of control | endpoint: mean survival time, dose: 400.0 mg/kg/injection, schedule: Q01DX009 (ip), vehicle: water 112 % of control | endpoint: mean survival time, dose: 450.0 mg/kg/injection, schedule: Q01DX009 (ip), vehicle: saline with Tween-80 114 % of control | endpoint: mean survival time, dose: 600.0 mg/kg/injection, schedule: Q01DX005 (ip), vehicle: water 108 % of control | endpoint: mean survival time, dose: 600.0 mg/kg/injection, schedule: Q01DX009 (ip), vehicle: saline 105 % of control | endpoint: mean survival time, dose: 600.0 mg/kg/injection, schedule: Q01DX009 (ip), vehicle: water 114 % of control | endpoint: mean survival time, dose: 900.0 mg/kg/injection, schedule: Q01DX005 (ip), vehicle: water 113 % of control | endpoint: mean survival time, dose: 900.0 mg/kg/injection, schedule: Q01DX009 (ip), vehicle: water 109 % of control | endpoint: median survival time, dose: 1.56 mg/kg/injection, schedule: Q01DX009 (ip), vehicle: saline 111 % of control | endpoint: median survival time, dose: 3.12 mg/kg/injection, schedule: Q01DX009 (ip), vehicle: saline 109 % of control | endpoint: median survival time, dose: 6.25 mg/kg/injection, schedule: Q01DX009 (ip), vehicle: saline 110 % of control | endpoint: median survival time, dose: 11.25 mg/kg/injection, schedule: Q03HX012 (ip), vehicle: saline 112 % of control | endpoint: median survival time, dose: 12.5 mg/kg/injection, schedule: Q01DX009 (ip), vehicle: saline 108 % of control | endpoint: median survival time, dose: 22.5 mg/kg/injection, schedule: Q03HX012 (ip), vehicle: saline 107 % of control | endpoint: median survival time, dose: 25.0 mg/kg/injection, schedule: Q01DX009 (ip), vehicle: saline 115 % of control | endpoint: median survival time, dose: 45.0 mg/kg/injection, schedule: Q03HX012 (ip), vehicle: saline 112 % of control | endpoint: median survival time, dose: 50.0 mg/kg/injection, schedule: Q01DX009 (ip), vehicle: saline 79 % of control | endpoint: median survival time, dose: 90.0 mg/kg/injection, schedule: Q03HX012 (ip), vehicle: saline 116 % of control | endpoint: median survival time, dose: 180.0 mg/kg/injection, schedule: Q03HX012 (ip), vehicle: saline 122 % of control

O=[N+]([O-])c1ccc(NCS(=O)(=O)O)cc1
inactive: endpoint: mean survival time, dose: 100.0 mg/kg/injection, schedule: Q01DX001 (ip), vehicle: saline with Tween-80 91 % of control | endpoint: mean survival time, dose: 200.0 mg/kg/injection, schedule: Q01DX001 (ip), vehicle: saline with Tween-80 94 % of control | endpoint: mean survival time, dose: 400.0 mg/kg/injection, schedule: Q01DX001 (ip), vehicle: saline with Tween-80 87 % of control

c1ccc2c(c1)c1ccccc1c1nc3c(nc21)CCCC3
inactive: endpoint: mean survival time, dose: 100.0 mg/kg/injection, schedule: Q04DX003 (ip), vehicle: saline with Tween-80 102 % of control | endpoint: mean survival time, dose: 200.0 mg/kg/injection, schedule: Q04DX003 (ip), vehicle: saline with Tween-80 96 % of control | endpoint: mean survival time, dose: 400.0 mg/kg/injection, schedule: Q04DX003 (ip), vehicle: saline with Tween-80 96 % of control

CCOC(=O)Nc1cc(=O)c([N+](=O)[O-])c(NC(=O)OCC)[nH]1
inactive: endpoint: mean survival time, dose: 75.0 mg/kg/injection, schedule: Q04DX003 (ip), vehicle: saline 92 % of control | endpoint: mean survival time, dose: 150.0 mg/kg/injection, schedule: Q04DX003 (ip), vehicle: saline 97 % of control | endpoint: mean survival time, dose: 300.0 mg/kg/injection, schedule: Q04DX003 (ip), vehicle: saline 101 % of control

O=S(=O)(N(c1ccccc1)S(=O)(=O)C(F)(F)F)C(F)(F)F
inactive: endpoint: mean survival time, dose: 50.0 mg/kg/injection, schedule: Q01DX009 (ip), vehicle: Klucel (hydroxypropylcellulose) (HPC) 91 % of control | endpoint: mean survival time, dose: 100.0 mg/kg/injection, schedule: Q01DX009 (ip), vehicle: Klucel (hydroxypropylcellulose) (HPC) 88 % of control | endpoint: mean survival time, dose: 200.0 mg/kg/injection, schedule: Q01DX009 (ip), vehicle: Klucel (hydroxypropylcellulose) (HPC) 88 % of control

CC(C)NC(=O)C1C=C2c3cccc4c3C(CN4)CC2N(C)C1 (stereo unspecified)
inactive: [3] 93 % of control | [1] 94 % of control | [4] 100 % of control | endpoint: mean survival time, dose: 100.0 mg/kg/injection, schedule: Q04DX003 (ip), vehicle: saline 88 % of control | [2] 97 % of control | endpoint: mean survival time, dose: 200.0 mg/kg/injection, schedule: Q04DX003 (ip), vehicle: saline 94 % of control

C=COC(=O)NC(CC(C)C)C(=O)O (stereo unspecified)
inactive: endpoint: mean survival time, dose: 75.0 mg/kg/injection, schedule: Q01DX001 (ip), vehicle: saline 103 % of control | endpoint: mean survival time, dose: 150.0 mg/kg/injection, schedule: Q01DX001 (ip), vehicle: saline 101 % of control

COC(=O)Nc1ccc(Cc2ccc(NC(=O)OC)cc2)cc1
inactive: [3] 121 % of control and 104 % of control | [4] 120 % of control and 110 % of control | endpoint: mean survival time, dose: 400.0 mg/kg/injection, schedule: Q01DX009 (ip), vehicle: saline with Tween-80 87 % of control

Cc1ccccc1C(O)(c1ccccc1C)c1ccccc1C
inactive: endpoint: mean survival time, dose: 100.0 mg/kg/injection, schedule: Q04DX003 (ip), vehicle: acetone 96 % of control | endpoint: mean survival time, dose: 200.0 mg/kg/injection, schedule: Q04DX003 (ip), vehicle: acetone 98 % of control | endpoint: mean survival time, dose: 400.0 mg/kg/injection, schedule: Q04DX003 (ip), vehicle: acetone 98 % of control

CCCCCCCCCCCC(O)CCCCC (stereo unspecified)
inactive: endpoint: mean survival time, dose: 100.0 mg/kg/injection, schedule: Q01DX009 (ip), vehicle: other 95 % of control | endpoint: mean survival time, dose: 100.0 mg/kg/injection, schedule: Q04DX003 (ip), vehicle: other 91 % of control | endpoint: mean survival time, dose: 200.0 mg/kg/injection, schedule: Q01DX009 (ip), vehicle: other 91 % of control | endpoint: mean survival time, dose: 200.0 mg/kg/injection, schedule: Q04DX003 (ip), vehicle: other 103 % of control | endpoint: mean survival time, dose: 400.0 mg/kg/injection, schedule: Q01DX009 (ip), vehicle: other 98 % of control | endpoint: mean survival time, dose: 400.0 mg/kg/injection, schedule: Q04DX003 (ip), vehicle: other 96 % of control

CCC(=O)Nc1nn[nH]n1
inactive: endpoint: mean survival time, dose: 100.0 mg/kg/injection, schedule: Q04DX002 (ip), vehicle: saline with Tween-80 105 % of control | endpoint: mean survival time, dose: 200.0 mg/kg/injection, schedule: Q04DX002 (ip), vehicle: saline with Tween-80 102 % of control | endpoint: mean survival time, dose: 400.0 mg/kg/injection, schedule: Q04DX002 (ip), vehicle: saline with Tween-80 94 % of control

N=C(N)SSCc1ccco1
inactive: endpoint: mean survival time, dose: 5.0 mg/kg/injection, schedule: Q04DX002 (ip), vehicle: saline with Tween-80 96 % of control | endpoint: mean survival time, dose: 10.0 mg/kg/injection, schedule: Q04DX002 (ip), vehicle: saline with Tween-80 103 % of control | endpoint: mean survival time, dose: 20.0 mg/kg/injection, schedule: Q04DX002 (ip), vehicle: saline with Tween-80 100 % of control

Reference: PubChem BioAssay AID256 (DTP/NCI, 2004)
